Reference: US20250114472A1, “CONJUGATE AND USE THEREOF” (BEIJING CHEMPION BIOTECHNOLOGY CO., LTD., priority 2022, published 2025)
pIC50: −log10 of the molar value. Where a SMILES comes first, the peptide text is derived from it. [ ]: non-standard residue; d: D form. The star is where a group is joined. Dolaproine = CO[C@@H]([C@@H]1CCCN1)[C@@H](C)C(=O)O; Dil = CC[C@H](C)[C@H](NC)[C@@H](CC(=O)O)OC; X1 = C[C@@H](N*)[C@@H](O)c1ccccc1; NMeV = CN[C@H](C(=O)O)C(C)C

System: NCI-N87 cells
Experiment: Cytotoxicity assay (Cell Titer Glo cell viability)
Assay type: cell-based
Settings: 144 hours, CTG
Source text: Cell viability assay was used to detect the cytotoxicity of an ADC antibody on NCI-N87 cells. This method can quantitatively analyze and specifically detect the cytotoxicity of an ADC antibody on NCI-N87 cells. Cells cultured without addition of ADC antibody were used as a blank control to determine the threshold of the cell viability detection. A signal below this threshold was considered as a specific signal generated after the ADC antibody killed cells. NCI-N87 cells (5×10^3 cells/well) were resuspended in a RPMI1640 medium containing 15% FBS and inoculated into a black 96-well plate with transparent bottom in a volume of 50 μL. The 96-well plate was placed in an incubator set at 37° C. and 5% CO2 overnight. After the overnight incubation, 50 μL of different concentrations of ADC antibodies or MMAE (starting from 400 nM, 4-fold serial dilution) were added to the 96-well plate (making the total volume to 100 μL/well), and the 96-well plate was placed in an incubator set at 37° C. and 5% CO2 for 144 hours. Cell Titer Glo (50 μL/well) was added to each well and the mixture was thoroughly mixed. The luciferase intensity was read using Envision. The cytotoxic effect was calculated using the following formula: cytotoxicity %=100* (RFUcell only−RFUsample)/RFUcell only. The IC50 value was calculated by four-parameter nonlinear regression analysis using GraphPad Prism 7 software.

CC[C@H](C)[C@@H]([C@@H](CC(=O)N1CCC[C@H]1[C@H](OC)[C@@H](C)C(=O)N[C@H](C)[C@@H](O)c1ccccc1)OC)N(C)C(=O)[C@@H](NC(=O)[C@@H](NC)C(C)C)C(C)C [MMAE, monomethyl auristatin E] (H-[NMeV]V[Dil][Dolaproine]-X1)
Max Inh % (from 400 nM): 90.41%
pIC50 (Homo sapiens): 9.92
